From patent US20120190754A1, “ANTIMICROBIAL COMPOSITION CONTAINING PARACHLORMETAXYLENOL” (Sentinel Products Corp., priority 2009, published 2012)

System: bacteria or mold
Assay: retention of antimicrobial activity on a substrate
Conditions: no test method described

Cc1cc(O)cc(C)c1Cl [PCMX, 4-chloro-3,5-dimethyl phenol]
duration of antimicrobial effect on a substrate: hours
